Assay [1] deals with biotinylated human Gal-3 (hGal-3) (Homo sapiens, UniProt P17931). Put plainly: Competitive binding assay: biotinylated hGal-3 binding to microplate-adsorbed asialofetuin (ASF), spectrophotometric. Put shortly:
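Competitive binding of biotinylated hGal-3 to plate-adsorbed asialofetuin was measured with serially diluted compounds over 3 h at 4° C. Bound protein was detected with streptavidin-peroxidase and ABTS substrate by absorbance. IC50 values are means of several measurements.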

The target in the next assay is human Gal-1 (hGal-1) (Homo sapiens, UniProt P09382). Put plainly: Competitive binding assay: biotinylated hGal-1 binding to microplate-adsorbed asialofetuin (ASF), spectrophotometric. To be noted: hGal-1 binding to asialofetuin; Table 15; R and S epimers of selected Examples also listed; read-out: IC50 (Galectin-1 inhibition). Put shortly: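 Biotinylated hGal-1 (300-1000 ng/mL) incubated with compound on asialofetuin-coated plates 3 hours at 4 °C, washed, then streptavidin-peroxidase (80 ng/mL) 1 hour at 4 °C. ABTS substrate read spectrophotometrically; IC50 reported as mean of several measurements.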

Setting [2] is: Table 8, hGal-3, read-out: IC50 (Gal-3 inhibition).
The mark [3] stands for this setting: Table 6, hGal-3, read-out: IC50 (Gal-3 inhibition).
[4] abbreviates: Table 10, hGal-3, read-out: IC50 (Gal-3 inhibition).
[5] abbreviates: Gal-3 inhibition, Table 5, read-out: IC50.
The mark [6] stands for this setting: Gal-3 inhibition, Table 4, read-out: IC50.

The text below walks through data of US12410208B2, “(2-acetamidyl)thio-beta-D-galactopyranoside derivatives” (Idorsia Pharmaceuticals Ltd, priority 2020, dated 2025).

Read-outs that look alike come from different tables or passages of the source.

The term IC50 denotes the concentration at which inhibition is half-maximal.

Sequence of biotinylated human Gal-3 (hGal-3) (P17931 whole entry): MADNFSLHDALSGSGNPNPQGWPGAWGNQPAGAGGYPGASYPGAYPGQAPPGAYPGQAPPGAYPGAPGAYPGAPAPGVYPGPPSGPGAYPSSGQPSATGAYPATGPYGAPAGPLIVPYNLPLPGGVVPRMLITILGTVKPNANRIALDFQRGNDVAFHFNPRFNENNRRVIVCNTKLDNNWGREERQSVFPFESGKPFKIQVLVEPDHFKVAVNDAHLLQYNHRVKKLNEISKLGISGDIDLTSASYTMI
Sequence of human Gal-1 (hGal-1) (P09382 whole entry): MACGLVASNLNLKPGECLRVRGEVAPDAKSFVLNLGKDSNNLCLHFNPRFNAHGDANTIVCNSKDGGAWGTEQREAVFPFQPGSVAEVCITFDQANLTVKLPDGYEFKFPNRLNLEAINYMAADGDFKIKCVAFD

For `CCN(C)C(=O)C(S[C@@H]1O[C@H](CO)[C@H](O)[C@H](n2cc(-c3cc(F)c(Br)c(F)c3)nn2)[C@H]1O)C1(O)CCOCC1` (stereo partly drawn) [Example 18.41.203., 2-(((2S,3R,4S,5R,6R)-4-(4-(4-Bromo-3,5-difluorophenyl)-1H-1,2,3-triazol-1-yl)-3,5-dihydroxy-6-(hydroxymethyl)tetrahydro-2H-pyran-2-yl)thio)-N-ethyl-2-(4-hydroxytetrahydro-2H-pyran-4-yl)-N-methylacetamide], the IC50 in assay [1] (Table 11, hGal-3, read-out: IC50 (Gal-3 inhibition)) amounted to 40 nM; on human Gal-1 (hGal-1), 350 nM.

On to `CO[C@@H]1[C@@H](n2cc(-c3cc(F)c(F)c(F)c3)nn2)[C@@H](O)[C@@H](CO)O[C@H]1SC(C(=O)N(C)CCC1CC1)C1(O)CCC(F)(F)CC1` (stereo partly drawn) [Example 2.44.217.I., N-(2-Cyclopropylethyl)-2-(4,4-difluoro-1-hydroxycyclohexyl)-2-(((2S,3R,4S,5R,6R)-5-hydroxy-6-(hydroxymethyl)-3-methoxy-4-(4-(3,4,5-trifluorophenyl)-1H-1,2,3-triazol-1-yl)tetrahydro-2H-pyran-2-yl)thio)-N-methylacetamide], for which the IC50 in assay [1] (Table 12, hGal-3, read-out: IC50 (Gal-3 inhibition)) stood at 50 nM; on human Gal-1 (hGal-1), 110 nM.

In the case of “(2R,3R,4S,5R,6S)-2-(Acetoxymethyl)-6-(((S)-2-(ethyl(methyl)amino)-1-(3-hydroxy-1-(methoxycarbonyl)azetidin-3-yl)-2-oxoethyl)thio)-4-(4-(3,4,5-trifluorophenyl)-1H-1,2,3-triazol-1-yl)tetrahydro-2H-pyran-3,5-diyl diacetate [Example 2.58.203S.]”, the IC50 in assay [1] (setting [2]) was 30 nM; at human Gal-1 (hGal-1), 100 nM.

Take `CN(CC(C)(C)C)C(=O)C(S[C@@H]1O[C@H](CO)[C@H](O)[C@H](n2cc(-c3cc(F)c(F)c(F)c3)nn2)[C@H]1O)C(C)(C)O` (stereo partly drawn) [Example 2.31.228., 2-(((2S,3R,4S,5R,6R)-3,5-Dihydroxy-6-(hydroxymethyl)-4-(4-(3,4,5-trifluorophenyl)-1H-1,2,3-triazol-1-yl)tetrahydro-2H-pyran-2-yl)thio)-3-hydroxy-N,3-dimethyl-N-neopentylbutanamide]: the IC50 in assay [1] (setting [3]) is 670 nM; on human Gal-1 (hGal-1), 1650 nM.

Turning to `CCN(C(=O)[C@@H](S[C@@H]1O[C@H](CO)[C@H](O)[C@H](n2cc(-c3cc(F)c(F)c(F)c3)nn2)[C@H]1OC)C1(O)CCC(F)(F)CC1)C1CC1` [Example 2.44.238S.I.], the IC50 in assay [1] (setting [4]) was determined as 20 nM; at human Gal-1 (hGal-1), 30 nM.

On to `CCN(C)C(=O)C(S[C@@H]1O[C@H](CO)[C@H](O)[C@H](n2cc(-c3cc(F)c(F)c(F)c3)nn2)[C@H]1O)C1(O)CCCC1` (stereo partly drawn) [Example 2.38.203., 2-(((2S,3R,4S,5R,6R)-3,5-Dihydroxy-6-(hydroxymethyl)-4-(4-(3,4,5-trifluorophenyl)-1H-1,2,3-triazol-1-yl)tetrahydro-2H-pyran-2-yl)thio)-N-ethyl-2-(1-hydroxycyclopentyl)-N-methylacetamide], for which the IC50 in assay [1] (setting [5]) worked out at 430 nM; at human Gal-1 (hGal-1), 1130 nM.

As for `CN(C)C(=O)C(S[C@@H]1O[C@H](CO)[C@H](O)[C@H](n2cc(-c3cc(F)c(F)c(F)c3)nn2)[C@H]1O)C(C)(C)O` (stereo partly drawn) [Example 2.31.201., 2-(((2S,3R,4S,5R,6R)-3,5-Dihydroxy-6-(hydroxymethyl)-4-(4-(3,4,5-trifluorophenyl)-1H-1,2,3-triazol-1-yl)tetrahydro-2H-pyran-2-yl)thio)-3-hydroxy-N,N,3-trimethylbutanamide], the IC50 in assay [1] (Gal-3 inhibition, Table 3, read-out: IC50) came out at 270 nM; on human Gal-1 (hGal-1) it was 1920 nM.

Consider `CN(C(=O)[C@@H](S[C@@H]1O[C@H](CO)[C@H](O)[C@H](n2cc(-c3cc(F)c(F)c(F)c3)nn2)[C@H]1O)C1(O)CCOCC1)c1ccccn1` [Example 2.41.233S.], for which the IC50 in assay [1] (Table 9, hGal-3, read-out: IC50 (Gal-3 inhibition)) amounted to 40 nM; on human Gal-1 (hGal-1), 30 nM.

With `CCN(C)C(=O)C(S[C@@H]1O[C@H](CO)[C@H](O)[C@H](n2cc(-c3cc(F)c(F)c(F)c3)nn2)[C@H]1O)C(O)(CC)CC` (stereo partly drawn) [Example 2.32.203., 2-(((2S,3R,4S,5R,6R)-3,5-Dihydroxy-6-(hydroxymethyl)-4-(4-(3,4,5-trifluorophenyl)-1H-1,2,3-triazol-1-yl)tetrahydro-2H-pyran-2-yl)thio)-N,3-diethyl-3-hydroxy-N-methylpentanamide], the concentration for half-maximal inhibition (IC50) in assay [1] (setting [3]) was 490 nM; at human Gal-1 (hGal-1) it was 1890 nM.

As for `CN(C)C(=O)C(S[C@@H]1O[C@H](CO)[C@H](O)[C@H](n2cc(-c3cc(F)c(F)c(F)c3)nn2)[C@H]1O)C1(O)CCC(F)(F)CC1` (single isomer, unassigned) [Example 2.44.201R.], the IC50 stood at 1330 nM in assay [1] (setting [5]) and 1710 nM on human Gal-1 (hGal-1).

Consider `O=C(C(S[C@@H]1O[C@H](CO)[C@H](O)[C@H](n2cc(-c3cc(F)c(F)c(F)c3)nn2)[C@H]1O)C1(O)CCOCC1)N1CCc2ccccc21` (stereo partly drawn) [Example 2.41.209., 2-(((2S,3R,4S,5R,6R)-3,5-Dihydroxy-6-(hydroxymethyl)-4-(4-(3,4,5-trifluorophenyl)-1H-1,2,3-triazol-1-yl)tetrahydro-2H-pyran-2-yl)thio)-2-(4-hydroxytetrahydro-2H-pyran-4-yl)-1-(indolin-1-yl)ethan-1-one], for which the half-maximal inhibitory concentration (IC50) came out at 150 nM in assay [1] (setting [6]) and 310 nM at human Gal-1 (hGal-1).

For `CCN(C(=O)[C@H](S[C@@H]1O[C@H](CO)[C@H](O)[C@H](n2cc(-c3cc(F)c(F)c(F)c3)nn2)[C@H]1OC)C1(O)CCC(F)(F)CC1)C1CC1` [Example 2.44.238R.I.], the IC50 in assay [1] (setting [4]) was 1000 nM; on human Gal-1 (hGal-1) it was more than 100000 nM.

In the case of `CN(C)C(=O)[C@@H](S[C@@H]1O[C@H](CO)[C@H](O)[C@H](n2cc(-c3cc(F)c(F)c(F)c3)nn2)[C@H]1O)C1(O)CCOCC1` [Example 2.41.201S., (S)-2-(((2S,3R,4S,5R,6R)-3,5-Dihydroxy-6-(hydroxymethyl)-4-(4-(3,4,5-trifluorophenyl)-1H-1,2,3-triazol-1-yl)tetrahydro-2H-pyran-2-yl)thio)-2-(4-hydroxytetrahydro-2H-pyran-4-yl)-N,N-dimethylacetamide], the IC50 came out at 60 nM in assay [1] (setting [6]) and 210 nM on human Gal-1 (hGal-1).

Regarding `CCN(C)C(=O)C(S[C@@H]1O[C@H](CO)[C@H](O)[C@H](n2cc(-c3cc(F)c(F)c(F)c3)nn2)[C@H]1O)C1(O)CCN(S(C)(=O)=O)CC1` (mixture of isomers) [Example 2.47.203., 2-(((2S,3R,4S,5R,6R)-3,5-Dihydroxy-6-(hydroxymethyl)-4-(4-(3,4,5-trifluorophenyl)-1H-1,2,3-triazol-1-yl)tetrahydro-2H-pyran-2-yl)thio)-N-ethyl-2-(4-hydroxy-1-(methylsulfonyl)piperidin-4-yl)-N-methylacetamide], the IC50 in assay [1] (setting [2]) was 30 nM; on human Gal-1 (hGal-1), 110 nM.

As for `O=C(C(S[C@@H]1O[C@H](CO)[C@H](O)[C@H](n2cc(-c3cc(F)c(F)c(F)c3)nn2)[C@H]1O)C1(O)CCC(F)(F)CC1)N1CCC(F)(F)CC1` (stereo partly drawn) [Example 2.44.226., 2-(4,4-Difluoro-1-hydroxycyclohexyl)-1-(4,4-difluoropiperidin-1-yl)-2-(((2S,3R,4S,5R,6R)-3,5-dihydroxy-6-(hydroxymethyl)-4-(4-(3,4,5-trifluorophenyl)-1H-1,2,3-triazol-1-yl)tetrahydro-2H-pyran-2-yl)thio)ethan-1-one], the figures for the IC50 (in assay [1] (setting [5]); at human Gal-1 (hGal-1)) were 90 nM and 110 nM, respectively.

Take “2-(1,1-Difluoro-6-hydroxyspiro[2.5]octan-6-yl)-1-(4,4-difluoropiperidin-1-yl)-2-(((2S,3R,4S,5R,6R)-5-hydroxy-6-(hydroxymethyl)-3-methoxy-4-(4-(3,4,5-trifluorophenyl)-1H-1,2,3-triazol-1-yl)tetrahydro-2H-pyran-2-yl)thio)ethan-1-one [Example 2.73.226.I.]”: the IC50 in assay [1] (Table 13, hGal-3, read-out: IC50 (Gal-3 inhibition)) amounted to 100 nM; at human Gal-1 (hGal-1), 150 nM.

Turning to “(R)-N-Cyclobutyl-2-(4,4-difluoro-1-hydroxycyclohexyl)-2-(((2S,3R,4S,5R,6R)-3,5-dihydroxy-6-(hydroxymethyl)-4-(4-(3,4,5-trifluorophenyl)-1H-1,2,3-triazol-1-yl)tetrahydro-2H-pyran-2-yl)thio)-N-methylacetamide [Example 2.44.206R.]”, the values for the IC50 (in assay [1] (setting [5]); at human Gal-1 (hGal-1)) were 440 nM and 1480 nM, respectively.

For `O=C([C@@H](S[C@@H]1O[C@H](CO)[C@H](O)[C@H](n2cc(-c3cc(F)c(F)c(F)c3)nn2)[C@H]1O)C1(O)CCC1)N1CCCCC1` [Example 2.34.208S., (S)-2-(((2S,3R,4S,5R,6R)-3,5-Dihydroxy-6-(hydroxymethyl)-4-(4-(3,4,5-trifluorophenyl)-1H-1,2,3-triazol-1-yl)tetrahydro-2H-pyran-2-yl)thio)-2-(1-hydroxycyclobutyl)-1-(piperidin-1-yl)ethan-1-one], the IC50 (in assay [1] (setting [5]); on human Gal-1 (hGal-1)) was 140 nM in each case.

Consider `CCN(C)C(=O)[C@H](S[C@@H]1O[C@H](CO)[C@H](O)[C@H](n2cc(-c3cc(F)c(F)c(F)c3)nn2)[C@H]1O)C1(O)CCC1` [Example 2.34.203R., (R)-2-(((2S,3R,4S,5R,6R)-3,5-Dihydroxy-6-(hydroxymethyl)-4-(4-(3,4,5-trifluorophenyl)-1H-1,2,3-triazol-1-yl)tetrahydro-2H-pyran-2-yl)thio)-N-ethyl-2-(1-hydroxycyclobutyl)-N-methylacetamide], for which the results for the IC50 (in assay [1] (setting [5]); at human Gal-1 (hGal-1)) were 3580 nM and 28300 nM, respectively.
